The assay addresses T1, B7-1/CD28 (Homo sapiens, UniProt P33681).
T1 sequence (P33681 35-242 limits assumed): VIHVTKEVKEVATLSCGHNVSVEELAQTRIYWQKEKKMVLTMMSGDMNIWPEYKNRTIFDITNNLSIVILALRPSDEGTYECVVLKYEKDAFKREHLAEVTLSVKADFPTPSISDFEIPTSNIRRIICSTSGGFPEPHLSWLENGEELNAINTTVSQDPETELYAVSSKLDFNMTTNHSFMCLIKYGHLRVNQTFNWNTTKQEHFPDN
Description: CD28/B7-1 ELISA (B7-1/CD28 binding inhibition). The settings on record: CD28-Fc coated wells; B7-1-Fc-biotin/streptavidin-alkaline phosphatase detection complex; 1% DMSO. Here is the method:
Evaluation of B7-1/CD28 Binding Inhibition for Test Compounds
Wells are coated with 300 ng CD28-Fc in carbonate buffer (pH 9.4) overnight at 4° C., blocked with 1% bovine serum albumin in tris-buffered saline (TBS) for 1 h at 22° C. and washed 3 times in TBS prior to assay. The detection complex is formed as follows: B7-1-Fc-biotin, prepared using NHS-LC-biotin (Pierce #21335) according to the manufacturers instructions (4.1 moles biotinimole Fc), is added at 0.8 ug/ml to streptavidin-alkaline phosphatase (Caltag Sa1008) at 1:1000 in TBS. A solution of test compound in dimethylsulfoxide (1% final) are added to this complex and incubated 30 min at 22° C. Detection complex (+/−inhibitors) is then added to the CD28 coated wells for 25 min at 22° C., washed 5 times with TBS, developed with the colorimetric substrate pNPP (Pierce #34045) in diethanolamine/MgCl2 buffer (pH 9.5) and read at 405 nm. The inhibition constant (IC50) is calculated by subtracting background binding and comparing to uninhibited (DMSO alone) controls. The inhibition constant represents the concentration of test compound required to achieve 50% inhibition.
Background: ELISA stands for enzyme-linked immunosorbent assay.
By IC50 is commonly meant the midpoint of a concentration-inhibition curve. In turn, `Cn1ncc2c3[nH]n(-c4cccc(C(=O)N5CCOCC5)c4)c(=O)c3c(-c3cccc(C(F)(F)F)c3)nc21` [Example 6] displayed a concentration for half-maximal inhibition (IC50) of 54 nM.
In turn, `Cn1ncc2c3[nH]n(-c4cccc(C(=O)Nc5ccc(O)cc5)c4)c(=O)c3c(-c3cccc(C(F)(F)F)c3)nc21` [Example 7, N-(4-hydroxyphenyl)-3-(6-methyl-3-oxo-4-[3-(trifluoromethyl)phenyl]-3,6-dihydrodipyrazolo[3,4-b:3,4-d]pyridin-2(1H)-yl)benzamide] gave a half-maximal inhibitory concentration (IC50) of 38 nM.
The same measure for `COC(CN(C)C(=O)c1cccc(-n2[nH]c3c(c(-c4cccc(C(F)(F)F)c4)nc4c3cnn4C)c2=O)c1)OC` [Example 8, N-(2,2-dimethoxyethyl)-N-methyl-3-(6-methyl-3-oxo-4-[3-(trfluoromethyl)phenyl]-3,6-dihydrodipyrazolo[3,4-b:3,4-d]pyridin-2(1H)-yl)benzamide]: 31 nM; for `Cn1ncc2c3[nH]n(-c4cccc(C(=O)N5CCSCC5)c4)c(=O)c3c(-c3cccc(C(F)(F)F)c3)nc21` [Example 10]: 70 nM; for `Cn1ncc2c3[nH]n(-c4cccc(C(=O)NCC5CC5)c4)c(=O)c3c(-c3cccc(C(F)(F)F)c3)nc21` [Example 12]: 80 nM.
The same measure for `CN(CCO)C(=O)c1cccc(-n2[nH]c3c(c(-c4cccc(C(F)(F)F)c4)nc4c3cnn4C)c2=O)c1` [Example 14]: 61 nM.
For the compound `COC(=O)c1cn(C(=O)c2cccc(-n3[nH]c4c(c(-c5cccc(C(F)(F)F)c5)nc5c4cnn5C)c3=O)c2)c2ccccc12` [Example 15], the IC50 is 63 nM.
With `CC(O)CNC(=O)c1cccc(-n2[nH]c3c(c(-c4cccc(C(F)(F)F)c4)nc4c3cnn4C)c2=O)c1` (stereo not drawn) [Example 19, N-(2-hydroxypropyl)-3-(6-methyl-3-oxo-4-[3-(trifluoromethyl)phenyl]-3,6-dihydrodipyrazolo[3,4-b:3,4-d]-pyridin-2(1H)-yl)benzamide], the half-inhibitory concentration (IC50) worked out at 45 nM.
For the compound `COCCNC(=O)c1cccc(-n2[nH]c3c(c(-c4cccc(C(F)(F)F)c4)nc4c3cnn4C)c2=O)c1` [Example 20], the IC50 worked out at 62 nM.
`Cn1ncc2c3[nH]n(-c4ccc(Cl)c(C(=O)N5CCC[C@@H]5CO)c4)c(=O)c3c(-c3cccc(C(F)(F)F)c3)nc21` [Example 23, 2-(4-chloro-3-{[(2R)-2-(hydroxymethyl)pyrrolidin-1-yl]carbonyl}phenyl)-6-methyl-4-[3-(trifluoromethyl)phenyl]-1,6-dihydrodipyrazolo[3,4-b:3,4-d]pyridin-3(2H)-one] gave an IC50 of 43 nM.
Take `Cn1ncc2c3[nH]n(-c4ccc(C(=O)Nc5cccc(CO)c5)cc4)c(=O)c3c(-c3cccc(C(F)(F)F)c3)nc21` [Example 35, N-[3-(hydroxymethyl)phenyl]4-(6-methyl-3-oxo-4-[3-(trifluoromethyl)phenyl]-3,6-dihydrodipyrazolo[3,4-b:3,4-d]pyridin-2(1H)-yl)benzamide]: the IC50 amounted to 17 nM.
The same measure for `Cn1ncc2c3[nH]n(-c4cccc(C(=O)NN)c4)c(=O)c3c(-c3cccc(C(F)(F)F)c3)nc21` [Example 44]: 80 nM; for `COC(=O)CNC(=O)c1cccc(-n2[nH]c3c(c(-c4cccc(C(F)(F)F)c4)nc4c3cnn4C)c2=O)c1` [Example 45]: 100 nM.
`Cn1ncc2c3[nH]n(-c4cccc(C(=O)NCCOCCOCCN)c4)c(=O)c3c(-c3cccc(C(F)(F)F)c3)nc21` [Example 46] registered an IC50 of 150 nM.
Consider `Cn1ncc2c3[nH]n(-c4cccc(C(=O)Nc5ccc(F)c(F)c5)c4)c(=O)c3c(-c3cccc(C(F)(F)F)c3)nc21` [Example 47], for which the half-inhibitory concentration (IC50) is 280 nM.
In the case of `CCOC(=O)c1cccc(NC(=O)c2cccc(-n3[nH]c4c(c(-c5cccc(C(F)(F)F)c5)nc5c4cnn5C)c3=O)c2)c1` [Example 48], the IC50 stood at 440 nM.
Compound `Cn1ncc2c3[nH]n(-c4cccc(C(=O)NCc5ccccc5)c4)c(=O)c3c(-c3cccc(C(F)(F)F)c3)nc21` [Example 49] gave an IC50 of 120 nM.
As for `Cn1ncc2c3[nH]n(-c4cccc(C(=O)Nc5cccc(CO)c5)c4)c(=O)c3c(-c3cccc(C(F)(F)F)c3)nc21` [Example 50], the IC50 came to 100 nM.
Turning to `CC(O)c1cccc(NC(=O)c2cccc(-n3[nH]c4c(c(-c5cccc(C(F)(F)F)c5)nc5c4cnn5C)c3=O)c2)c1` (stereo not drawn) [Example 51], the IC50 amounted to 130 nM.
On to `Cn1ncc2c3[nH]n(-c4cccc(C(=O)N5CCc6ccccc6C5)c4)c(=O)c3c(-c3cccc(C(F)(F)F)c3)nc21` [Example 52], for which the IC50 was 300 nM.
For `COC(=O)[C@H]1CCCN1C(=O)c1cccc(-n2[nH]c3c(c(-c4cccc(C(F)(F)F)c4)nc4c3cnn4C)c2=O)c1` [Example 53], the IC50 is 270 nM.
Consider `Cn1ncc2c3[nH]n(-c4cccc(C(=O)N5CCC(C(=O)O)CC5)c4)c(=O)c3c(-c3cccc(C(F)(F)F)c3)nc21` [Example 54], for which the IC50 is 860 nM.
Consider `Cn1ncc2c3[nH]n(-c4cccc(C(=O)Nc5ccc(CCO)cc5)c4)c(=O)c3c(-c3cccc(C(F)(F)F)c3)nc21` [Example 55], for which the IC50 was found to be 110 nM.
In turn, `CN(Cc1ccccc1)C(=O)c1cccc(-n2[nH]c3c(c(-c4cccc(C(F)(F)F)c4)nc4c3cnn4C)c2=O)c1` [Example 56] showed a half-maximal inhibitory concentration (IC50) of 180 nM.
As to `CC1CCCN(C(=O)c2cccc(-n3[nH]c4c(c(-c5cccc(C(F)(F)F)c5)nc5c4cnn5C)c3=O)c2)C1` (stereo not drawn) [Example 57], the IC50 came to 92 nM.
`CCN(CC)C(=O)C1CCCN(C(=O)c2cccc(-n3[nH]c4c(c(-c5cccc(C(F)(F)F)c5)nc5c4cnn5C)c3=O)c2)C1` (stereo not drawn) [Example 58] came in with an IC50 of 110 nM.
The same measure for `Cn1ncc2c3[nH]n(-c4cccc(C(=O)N5CCC(O)CC5)c4)c(=O)c3c(-c3cccc(C(F)(F)F)c3)nc21` [Example 59]: 105 nM.
Compound `COc1ccc(CNC(=O)c2cccc(-n3[nH]c4c(c(-c5cccc(C(F)(F)F)c5)nc5c4cnn5C)c3=O)c2)cc1` [Example 60] came in with a 50% inhibitory concentration (IC50) of 180 nM.
The compound `CN(CCC#N)C(=O)c1cccc(-n2[nH]c3c(c(-c4cccc(C(F)(F)F)c4)nc4c3cnn4C)c2=O)c1` [Example 61] returned a 50% inhibitory concentration (IC50) of 330 nM.
In turn, `Cn1ncc2c3[nH]n(-c4ccc(F)c(C(=O)Nc5ccc(CCO)cc5)c4)c(=O)c3c(-c3cccc(C(F)(F)F)c3)nc21` [Example 62] returned a concentration for half-maximal inhibition (IC50) of 380 nM.
In turn, `COCCCNC(=O)c1cccc(-n2[nH]c3c(c(-c4cccc(C(F)(F)F)c4)nc4c3cnn4C)c2=O)c1` [Example 63] yielded an IC50 of 180 nM.
Turning to `COC(=O)[C@H]1CCCN1C(=O)c1cc(-n2[nH]c3c(c(-c4cccc(C(F)(F)F)c4)nc4c3cnn4C)c2=O)ccc1Cl` [Example 64], the IC50 is 180 nM.
`CC(O)c1cccc(NC(=O)c2cc(-n3[nH]c4c(c(-c5cccc(C(F)(F)F)c5)nc5c4cnn5C)c3=O)ccc2F)c1` (stereo not drawn) [Example 65] came in with an IC50 of 1000 nM.
The figure for `Cn1ncc2c3[nH]n(-c4ccc(F)c(C(=O)N5CCOCC5)c4)c(=O)c3c(-c3cccc(C(F)(F)F)c3)nc21` [Example 66] is 2400 nM; for `Cn1ncc2c3[nH]n(-c4ccc(F)c(C(=O)Nc5ccc(CO)cc5)c4)c(=O)c3c(-c3cccc(C(F)(F)F)c3)nc21` [Example 68] it is 370 nM.
In the case of `Cn1ncc2c3[nH]n(-c4ccc(C(N)=O)cc4)c(=O)c3c(-c3cccc(C(F)(F)F)c3)nc21` [Example 70], the IC50 was 38 nM.
The figure for `Cn1ncc2c3[nH]n(-c4ccc(C(=O)Nc5cccc(O)c5)cc4)c(=O)c3c(-c3cccc(C(F)(F)F)c3)nc21` [Example 71] is 140 nM.
The compound `CN(CCC#N)C(=O)c1ccc(-n2[nH]c3c(c(-c4cccc(C(F)(F)F)c4)nc4c3cnn4C)c2=O)cc1` [Example 72] returned an IC50 of 110 nM.
With `Cn1ncc2c3[nH]n(-c4ccc(C(=O)Nc5ccc(O)cc5)cc4)c(=O)c3c(-c3cccc(C(F)(F)F)c3)nc21` [Example 73], the IC50 was found to be 11 nM.
With `Cn1ncc2c3[nH]n(-c4ccc(C(=O)Nc5ccccc5O)cc4)c(=O)c3c(-c3cccc(C(F)(F)F)c3)nc21` [Example 74, N-(2-hydroxyphenyl)-4-{6-methyl-3-oxo-3-[3-(trfluoromethyl)phenyl]-3,6-dihydrodipyrazolo[3,4-b:3′,4′-d]pyridin-2(1H)-yl}benzamide], the concentration for half-maximal inhibition (IC50) came to 17 nM.
On to `Cn1ncc2c3[nH]n(-c4ccc(C(=O)NCC5CC5)cc4)c(=O)c3c(-c3cccc(C(F)(F)F)c3)nc21` [Example 75], for which the IC50 amounted to 107 nM.
`CC(O)CNC(=O)c1ccc(-n2[nH]c3c(c(-c4cccc(C(F)(F)F)c4)nc4c3cnn4C)c2=O)cc1` (stereo not drawn) [Example 76] displayed an IC50 of 50 nM.
`Cn1ncc2c3[nH]n(-c4ccc(C(=O)N5CCSCC5)cc4)c(=O)c3c(-c3cccc(C(F)(F)F)c3)nc21` [Example 77] had a half-inhibitory concentration (IC50) of 140 nM.
The figure for `CC(C)c1ccc(NC(=O)c2ccc(-n3[nH]c4c(c(-c5cccc(C(F)(F)F)c5)nc5c4cnn5C)c3=O)cc2)cc1` [Example 78] is 120 nM.
`Cn1ncc2c3[nH]n(-c4ccc(C(=O)Nc5cccnc5)cc4)c(=O)c3c(-c3cccc(C(F)(F)F)c3)nc21` [Example 79] displayed a half-inhibitory concentration (IC50) of 180 nM.
